# Assay results taken from US20230339854A1, “Negative Allosteric Modulation of GluN3-Containing N-Methyl-D-Aspartate Receptors” (Emory University, priority 2020, published 2023).
# Molecular target: T1, human GluN1^FA,TL/GluN3A receptors (Homo sapiens, UniProt Q8TCU5)
# T1 construct: Human GluN3A (NP_597702.2) and rat GluN3B (NP_579842.2) were synthesized and subcloned into SP6 plasmids; expressed in transfected cells; host or cells: Xenopus laevis oocytes, cRNA injection (GluN1:GluN3 1:3)
# Test: Two-electrode voltage-clamp recordings of GluN1^FA,TL/GluN3A receptors in Xenopus oocytes
# Type: cell-based
# Conditions: hGluN1^FA,TL/hGluN3A; read-out: IC50
# Source text: cDNA encoding human wild-type (WT) GluN1-1a (GenBank accession numbers NP_015566, hereafter GluN1) and rat GluN1-1a (NP_058706.1) were synthesized and subcloned into pGEMHE plasmid; some experiments used the rat splice variant GluN1-4a (NP_001257531.1). Human GluN3A (NP_597702.2) and rat GluN3B (NP_579842.2) were synthesized and subcloned into SP6 plasmids. For most experiments, human GluN1 was co-expressed with human GluN3A, except for mutagenesis experiments where rat GluN1 was co-expressed with human GluN3A. Rat GluN1-4a was always expressed with rat GluN3B.
# Defolliculated Xenopus laevis oocytes (stage V-VI) were obtained from Ecocyte BioScience (Austin, Texas), or prepared from commercially available Xenopus ovaries (Xenopus 1, Dexter, MI) as previously described (Hansen, et al., Mol. Pharmacol., 2013). A Drummond Nanoject II (Broomall, PA) was used to inject oocytes with cRNAs encoding GluN1 and GluN3 at a 1:3 ratio in RNase-free water. The cRNA was diluted as needed to give responses with amplitudes ranging between 200-2000 nA (0.2-10 ng total cRNA). Following cRNA injection, the oocytes were stored at 15-19° C. in Barth's solution that contained (in mM) 88 NaCl, 2.4 NaHCO3, 1 KCl, 0.33 Ca(NO3)2, 0.41 CaCl2), 0.82 MgSO4, and 5 Tris-HCl (pH 7.4 with NaOH), supplemented with 1 μg/ml streptomycin (Invitrogen, Carlsbad, CA) and 100 μg/ml gentamicin (Fisher Scientific, Pittsburgh, PA). Recordings were performed 2-5 days following cRNA microinjection at room temperature (23° C.) using a two-electrode voltage-clamp amplifier (OC725, Warner Instrument, Hamilton, CT). The signal was low-pass filtered at 10-20 Hz (4-pole, −3 dB Bessel) and digitized at the Nyquist rate using PCI-6025E or USB-6212 BNC data acquisition boards (National Instruments, Austin, TX) using EasyOocyte (http://www.easyoocyte.io/). Oocytes were placed in a custom-made chamber and continuously perfused (2.5 ml/min) with oocyte recording solution containing (in mM) 90 NaCl, 1 KCl, 10 HEPES, 0.5-1.0 BaCl2, and 0.01 EDTA (pH 7.4 with NaOH). Solutions were applied by gravity, and solution exchange was controlled through a rotary valve (Hamilton, Reno, NV). Recording electrodes were filled with 0.3-3.0 M KCl, and current responses were recorded at a holding potential of −40 mV.
# Response (%)=(100−minimum)/(1+([concentration]/IC50)^nH)+minimum (2) • where nH is the Hill slope, IC50 is the concentration that produces a half-maximal effect, and minimum is the degree of residual inhibition at a saturating concentration of the negative allosteric modulator.
# The afore-referenced compounds were screened in the same assay as EU1180-438 to determine their effects on hGluN1^FA,TL/hGluN3A receptors. Selected compounds that inhibited by more than 20% at the concentration at which they were initially evaluated (either 10 or 30 μM) were analyzed further, and a dose-response curve was generated to determine their IC50 values.
# T1 sequence (Q8TCU5 24-1115, other chains not shown): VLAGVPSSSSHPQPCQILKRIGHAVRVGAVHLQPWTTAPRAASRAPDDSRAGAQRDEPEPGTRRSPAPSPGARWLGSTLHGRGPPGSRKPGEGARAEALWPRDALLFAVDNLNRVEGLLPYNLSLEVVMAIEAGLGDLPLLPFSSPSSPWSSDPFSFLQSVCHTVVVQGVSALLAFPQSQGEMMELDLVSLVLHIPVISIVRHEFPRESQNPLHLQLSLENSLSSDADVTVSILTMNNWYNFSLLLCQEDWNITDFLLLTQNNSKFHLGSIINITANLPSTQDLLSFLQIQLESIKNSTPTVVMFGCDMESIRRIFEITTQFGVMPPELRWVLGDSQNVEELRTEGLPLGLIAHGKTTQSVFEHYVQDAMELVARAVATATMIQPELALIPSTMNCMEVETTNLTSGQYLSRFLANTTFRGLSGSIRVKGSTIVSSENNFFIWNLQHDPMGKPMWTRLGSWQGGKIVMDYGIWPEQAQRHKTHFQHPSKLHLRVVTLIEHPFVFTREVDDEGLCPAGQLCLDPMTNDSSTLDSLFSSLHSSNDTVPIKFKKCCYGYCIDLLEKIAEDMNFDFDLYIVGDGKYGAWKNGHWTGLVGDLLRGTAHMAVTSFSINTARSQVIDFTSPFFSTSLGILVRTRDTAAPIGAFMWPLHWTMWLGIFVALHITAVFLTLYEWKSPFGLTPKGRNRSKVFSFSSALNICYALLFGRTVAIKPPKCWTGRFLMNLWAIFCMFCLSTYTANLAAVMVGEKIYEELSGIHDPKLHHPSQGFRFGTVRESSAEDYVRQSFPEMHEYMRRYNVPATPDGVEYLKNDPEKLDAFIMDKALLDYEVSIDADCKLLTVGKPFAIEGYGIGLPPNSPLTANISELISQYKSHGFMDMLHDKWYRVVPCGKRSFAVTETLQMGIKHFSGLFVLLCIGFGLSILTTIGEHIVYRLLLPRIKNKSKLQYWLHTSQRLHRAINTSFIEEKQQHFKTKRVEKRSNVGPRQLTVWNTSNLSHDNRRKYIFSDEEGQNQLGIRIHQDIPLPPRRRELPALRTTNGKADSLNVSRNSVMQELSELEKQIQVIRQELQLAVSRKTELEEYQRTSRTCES
row,SMILES,IC50 [µM]
1,"CCOc1ccc(OCC(c2ccc(OC(C)C)cc2)N2Cc3ccc(F)cc3C2=O)cc1 (stereo not drawn) [EU1180-590, 6-fluoro-2-(2-(4-ethoxyphenoxy)-1-(4-isopropoxyphenyl)ethyl)isoindolin-1-one]",15.7

# Same assay, conditions: read-out: hGluN1^FA,TL/hGluN3A (100 × Idrug/Icontrol at 30 μM drug)
row,SMILES,remaining activity at 30 µM [%]
1,"COc1ccc(OCC(c2ccc(OC)c(OC)c2)N2Cc3ccc(C(F)(F)F)cc3C2=O)cc1 (stereo not drawn) [EU1180-523, 2-(1-(3,4-Dimethoxyphenyl)-2-(4-methoxyphenoxy)ethyl)-6-(trifluoromethyl)isoindolin-1-one]",104
2,"CCOc1ccc(OCC(c2ccc(OC(C)C)cc2)N2Cc3ccc(F)cc3C2=O)cc1 (stereo not drawn) [EU1180-590, 6-fluoro-2-(2-(4-ethoxyphenoxy)-1-(4-isopropoxyphenyl)ethyl)isoindolin-1-one]",35
3,"CC(C)Oc1ccc(C(COc2ccc(C(F)(F)F)cc2)N2Cc3ccc(F)cc3C2=O)cc1 (stereo not drawn) [EU1180-575, 6-fluoro-2-(1-(4-isopropoxyphenyl)-2-(4-(trifluoromethyl)phenoxy)ethyl)isoindolin-1-one]",76
4,"CC(C)Oc1ccc(C(COc2ccc(OC(F)(F)F)cc2)N2Cc3ccc(Cl)cc3C2=O)cc1 (stereo not drawn) [EU1180-540, 6-chloro-2-(1-(4-isopropoxyphenyl)-2-(4-(trifluoromethoxy)phenoxy)ethyl)isoindolin-1-one]",100
5,"CC(C)Oc1ccc(C(COc2ccc(OC(F)(F)F)cc2)N2Cc3ccccc3C2=O)cc1 (stereo not drawn) [EU1180-538, 2-(1-(4-isopropoxyphenyl)-2-(4-(trifluoromethoxy)phenoxy)ethyl)isoindolin-1-one]",99
6,"COc1ccc(OCC(c2ccc(OC(C)C)cc2)N2Cc3ccc(C(F)(F)F)cc3C2=O)cc1 (stereo not drawn) [EU1180-558, 2-(1-(4-isopropoxyphenyl)-2-(4-methoxyphenoxy)ethyl)-6-(trifluoromethyl)isoindolin-1-one]",98
7,"COc1cc(F)c(C(COc2cccc(C)n2)N2Cc3ccccc3C2=O)c(F)c1 (stereo not drawn) [EU1180-608, 2-(1-(2,6-Difluoro-4-methoxyphenyl)-2-((6-methylpyridin-2-yl)oxy)ethyl)isoindolin-1-one]",70
8,"COc1ccc(C(COc2cccc(C)n2)N2Cc3ccc(Cl)cc3C2=O)c(F)c1 (stereo not drawn) [EU1180-605, 6-Chloro-2-(1-(2-fluoro-4-methoxyphenyl)-2-((6-methylpyridin-2-yl)oxy)ethyl)isoindolin-1-one]",69
9,"CCOc1ccc(OCC(c2ccc(OC(C)C)cc2)N2Cc3cc(F)ccc3C2=O)cc1 (stereo not drawn) [EU1180-591, 5-fluoro-2-(2-(4-ethoxyphenoxy)-1-(4-isopropoxyphenyl)ethyl)isoindolin-1-one]",90
10,"COc1cc(F)c(C(COc2cccc(C)n2)N2Cc3ccc(F)cc3C2=O)c(F)c1 (stereo not drawn) [EU1180-614, 2-(1-(2,6-Difluoro-4-methoxyphenyl)-2-((6-methylpyridin-2-yl)oxy)ethyl)-6-fluoroisoindolin-1-one]",57
11,"COc1ccc(OCC(c2ccc(OC)c(OC)c2)N2Cc3cc(F)ccc3C2=O)cc1 (stereo not drawn) [EU1180-528, 2-(1-(3,4-Dimethoxyphenyl)-2-(4-methoxyphenoxy)ethyl)-5-fluoroisoindolin-1-one]",94
12,"COc1ccc(OCC(c2ccc(OC(C)C)cc2)N2Cc3cc(Cl)ccc3C2=O)cc1 (stereo not drawn) [EU1180-559, 5-chloro-2-(1-(4-isopropoxyphenyl)-2-(4-methoxyphenoxy)ethyl)isoindolin-1-one]",96
13,"CC(C)Oc1ccc(C(COc2ccc(C(F)(F)F)cc2)N2Cc3cc(Br)ccc3C2=O)cc1 (stereo not drawn) [EU1180-578, 5-bromo-2-(1-(4-isopropoxyphenyl)-2-(4-(trifluoromethyl)phenoxy)ethyl)isoindolin-1-one]",118
14,"COc1ccc(OCC(c2ccc(OC(C)C)cc2)N2Cc3cc(Br)ccc3C2=O)cc1 (stereo not drawn) [EU1180-563, 5-bromo-2-(1-(4-isopropoxyphenyl)-2-(4-methoxyphenoxy)ethyl)isoindolin-1-one]",98
15,"COc1ccc(OCC(c2c(F)cc(OC)cc2F)N2Cc3ccc(Cl)cc3C2=O)cc1 (stereo not drawn) [EU1180-548, 6-Chloro-2-(1-(2,6-difluoro-4-methoxyphenyl)-2-(4-methoxyphenoxy)ethyl)isoindolin-1-one]",90
16,"CC(C)Oc1ccc(C(COc2ccc(C(F)(F)F)cc2)N2Cc3ccc(Cl)cc3C2=O)cc1 (stereo not drawn) [EU1180-573, 6-chloro-2-(1-(4-isopropoxyphenyl)-2-(4-(trifluoromethyl)phenoxy)ethyl)isoindolin-1-one]",100
17,"COc1ccc(C(COc2cccc(C)n2)N2Cc3cc(Cl)ccc3C2=O)cc1 (stereo not drawn) [EU1180-594, 5-Chloro-2-(1-(4-methoxyphenyl)-2-((6-methylpyridin-2-yl)oxy)ethyl)isoindolin-1-one]",73
18,"Cc1cccc(OCC(c2ccc(OC(C)C)cc2)N2Cc3ccc(Br)cc3C2=O)n1 (stereo not drawn) [EU1180-514, 6-bromo-2-(1-(4-isopropoxyphenyl)-2-((6-methylpyridin-2-yl)oxy)ethyl)isoindolin-1-one]",93
19,"COc1ccc(OCC(c2ccc(OC)cc2)N2Cc3ccc(F)cc3C2=O)cc1 (stereo not drawn) [EU1180-522, 6-Fluoro-2-(2-(4-methoxyphenoxy)-1-(4-methoxyphenyl)ethyl)isoindolin-1-one]",25
20,"COc1ccc(OCC(c2ccc(OC)cc2)N2Cc3cc(Cl)ccc3C2=O)cc1 (stereo not drawn) [EU1180-517, 5-Chloro-2-(2-(4-methoxyphenoxy)-1-(4-methoxyphenyl)ethyl)isoindolin-1-one]",92
21,"Cc1cccc(OCC(c2ccc(OC(C)C)cc2)N2Cc3cc(Br)ccc3C2=O)n1 (stereo not drawn) [EU1180-515, 5-bromo-2-(1-(4-isopropoxyphenyl)-2-((6-methylpyridin-2-yl)oxy)ethyl)isoindolin-1-one]",100
22,"COc1cc(F)c(C(COc2cccc(C)n2)N2Cc3ccc(C(F)(F)F)cc3C2=O)c(F)c1 (stereo not drawn) [EU1180-609, 2-(1-(2,6-Difluoro-4-methoxyphenyl)-2-((6-methylpyridin-2-yl)oxy)ethyl)-6-(trifluoromethyl)isoindolin-1-one]",81
23,"CC(C)Oc1ccc(C(COc2ccc(OC(F)(F)F)cc2)N2Cc3ccc(C(F)(F)F)cc3C2=O)cc1 (stereo not drawn) [EU1180-539, 2-(1-(4-isopropoxyphenyl)-2-(4-(trifluoromethoxy)phenoxy)ethyl)-6-(trifluoromethyl)isoindolin-1-one]",99
24,"COc1ccc(OCC(c2ccc(OC)cc2F)N2Cc3cc(Cl)ccc3C2=O)cc1 (stereo not drawn) [EU1180-532, 5-Chloro-2-(1-(2-fluoro-4-methoxyphenyl)-2-(4-methoxyphenoxy)ethyl)isoindolin-1-one]",95
25,"COc1ccc(OCC(c2c(F)cc(OC)cc2F)N2Cc3ccc(F)cc3C2=O)cc1 (stereo not drawn) [EU1180-552, 2-(1-(2,6-Difluoro-4-methoxyphenyl)-2-(4-methoxyphenoxy)ethyl)-6-fluoroisoindolin-1-one]",70
26,"COc1ccc(OCC(c2ccc(OC)cc2)N2Cc3ccc(C(F)(F)F)cc3C2=O)cc1 (stereo not drawn) [EU1180-518, 2-(2-(4-Methoxyphenoxy)-1-(4-methoxyphenyl)ethyl)-6-(trifluoromethyl)isoindolin-1-one]",86
27,"COc1ccc(C(COc2cccc(C)n2)N2Cc3cc(F)ccc3C2=O)cc1 (stereo not drawn) [EU1180-598, 5-Fluoro-2-(1-(4-methoxyphenyl)-2-((6-methylpyridin-2-yl)oxy)ethyl)isoindolin-1-one]",89
28,"COc1ccc(OCC(c2c(F)cc(OC)cc2F)N2Cc3ccc(C(F)(F)F)cc3C2=O)cc1 (stereo not drawn) [EU1180-546, 2-(1-(2,6-Difluoro-4-methoxyphenyl)-2-(4-methoxyphenoxy)ethyl)-6-(trifluoromethyl)isoindolin-1-one]",96
29,"CC(C)Oc1ccc(C(COc2ccc(OC(F)(F)F)cc2)N2Cc3cc(F)ccc3C2=O)cc1 (stereo not drawn) [EU1180-544, 5-fluoro-2-(1-(4-isopropoxyphenyl)-2-(4-(trifluoromethoxy)phenoxy)ethyl)isoindolin-1-one]",98
